One compound from US11135244B2, “Stem cell culture media and methods of enhancing cell survival” (Fate Therapeutics, Inc., priority 2013, dated 2021) can be followed below.

The subject of assay [1] is CXCR4 gene expression. The assay is described as follows: CXCR4 gene expression after incubation with dmPGE2. It is filed as cell-based. The following applies: 10 μM dmPGE2 for two hours at 37° C.
In assay [2] the test system is CXCR4 surface protein within Lin-CD45lowCD34+7AAD- cells. The assay is described as follows: CXCR4 surface protein on cord blood mononuclear cells after dmPGE2 treatment. The format is cell-based. The following applies: 10 μM dmPGE2 two hours at 37° C., then additional one hour incubation without dmPGE2. How it is done: Cord blood mononuclear cells (All Cells, Emeryville, Calif.) were thawed in a 37° C. water bath and immediately diluted with 10 mL of pre-warmed IMDM with 10% fetal calf serum and 5 uL of DNase (Life Technologies, Grand Island, N.Y.). The cells were split three ways and centrifuged at 300×g for 10 minutes. The cells were resuspended in STEMSPAN-ACF (Media 1), STEMSPAN-ACF with 5% Dextran-40 (Media 2) or STEMSPAN-ACF with 10% Dextran-40 (Media 3). A subset, 1×10^6 cells, from Media 1 were kept at 4° C. and immediately stained with Lineage Mix-FITC, CXCR4-PE, CD34-APC, and CD45-V450 antibodies from BD Biosciences. All 3 media conditions were split into a vehicle-treated cohort and a 10 μM dmPGE2-treated cohort and incubated at 37° C. for 2 hours. The cells were washed with the same media and incubated at 37° C. for an additional 1 hour. Each cohort was stained with the same antibodies as indicated above. Levels of CXCR4 surface protein within the Lin-CD45^lowCD34+7AAD-cells were analyzed.

In the case of `CCCCC(C)(C)[C@H](O)/C=C/[C@H]1[C@H](O)CC(=O)[C@@H]1C/C=C\CCCC(=O)O` [dmPGE2, 16,16-dimethyl PGE2], the CXCR4 gene expression result in assay [1] is on record as “increased”. In addition, the CXCR4 surface protein result in assay [2] was “increased”.
